# Key:
# hKV1.2 = biological target: T1, hKV1.2 (Homo sapiens, UniProt P16389); test: Whole-cell patch-clamp, hKV1.2 in transiently transfected CHO cells; format: cell-based; design: reduction in current amplitude, positive control: dose or concentration left out as unconfirmed; settings: […] nM, KV1.2
# T1 construct: GFP; expressed in transfected cells; host or cells: CHO cells (ATCC), transient transfection with Lipofectamine 2000
# Protocol: (§1) CHO and human embryonic kidney (HEK 293) cells were grown in DMEM-high glucose supplemented with 10% FBS, 2 mM L-glutamine, 100 U/mL penicillin-g, and 100 μg/mL streptomycin (Invitrogen) at 37 °C in a 5% CO2 and 95% air humidified atmosphere. Cells were passaged twice per week following a 5-min incubation in PBS containing 0.2 g/L EDTA (Invitrogen, Carlsbad, CA).
# (§2) CHO cells (ATCC) were transiently transfected with plasmids encoding hKV1.1, hKV1.2, hKV10.1, hKCa3.1, hTRPA1, or hNaV1.7 using Lipofectamine 2000 (Invitrogen, Carlsbad, CA) following the manufacturer’s protocol, then cultured under standard conditions. The cells were co-transfected with a plasmid encoding green fluorescent protein (GFP) at a molar ratio of 10:1 except for hKV1.1, hKV1.2, and hKCa3.1 for which GFP-tagged ion channel vectors were used. Currents were recorded 24–36 h after transfection. […] HEK 293 cells stably expressing the hKv11.1 channel (hERG, hKCNH2 gene, a kind gift from H. Wulff, University of California, Davis, CA) and mKCa1.1 channel (BKCa, hKCNMA1, a kind gift from C. Beeton, Baylor College of Medicine, Houston, TX) were used. hTRPV1 channels were expressed in a stable manner in CHO cells. Transfected cells were washed twice with 2 mL of ECS (see below) and re-plated onto 35-mm polystyrene cell culture dishes (Cellstar, Greiner Bio-One). hKV1.3 currents were recorded from activated peripheral blood mononuclear cells (PBMCs, see below) 3–4 days after activation. Human veinous blood was obtained from anonymised healthy donors. PBMCs were isolated using Histopaque1077 (Sigma-Aldrich Hungary, Budapest, Hungary) density gradient centrifugation. Cells obtained were resuspended in RPMI 1640 medium containing 10% foetal calf serum (Sigma-Aldrich Hungary, Budapest, Hungary), 100 μg/mL penicillin, 100 μg/mL streptomycin, and 2 mM L-glutamine, seeded in a 24-well culture plate at a density of 5–6 × 10^5 cells/mL, and grown in a 5% CO2 incubator at 37 °C for 3–5 days. Phytohemagglutinin A (PHA, Sigma-Aldrich Hungary, Budapest, Hungary) was added to the medium at 10 μg/mL to amplify the KV1.3 expression. Cells were washed gently twice with 2 mL of ECS for the patch-clamp experiments.
# Conventional whole-cell patch-clamp electrophysiology was used to record ionic currents. Micropipettes were pulled in four stages using a Flaming Brown automatic pipette puller (Sutter Instruments, San Rafael, CA) from Borosilicate Standard Wall with Filament aluminium–silicate glass (Harvard Apparatus Co., Holliston, MA) with tip diameters between 0.5 and 1 μm and heat polished to a tip resistance of 2–8 MΩ. All measurements were carried out by using Axopatch 200B amplifier connected to a personal computer using Axon Digidata 1550A data acquisition hardware (Molecular Devices, Sunnyvale, CA). In general, the holding potential was − 120 mV. Records were discarded when a leak at the holding potential was > 10% of the peak current at the test potential. Series resistance compensation up to 70% was used to minimise voltage errors and achieve proper voltage-clamp conditions. Experiments were performed at room temperature (20–24 °C). Data were analysed using Prism 8 (GraphPad, CA, USA) and ClampFit 10.5 software (Molecular Devices Inc., Sunnyvale, CA). Before analysis, whole-cell current traces were corrected for ohmic leakage and digitally filtered with a three-point boxcar smoothing filter. For hKCa3.1, hTRPA1 and hTRPV1, the reversal potential for K^+ was determined and only those currents were analysed for which the reversal potential fell into the range of the theoretical reversal potential ± 5 mV (− 86.5 ± 5 mV for KCa3.1, and 0 ± 5 mV for hTRPA1 and hTRPV1).
# hKV1.1 [1] = settings: read-out: Kd (positive control concentration equivalent to Kd); KV1.1; no reference given; cited from earlier work
# Protocol: (§3) Voltage protocols: For measurement of hKV1.1–1.3 and hKV10.1, currents, voltage steps to + 50 mV, were applied from a holding potential of − 120 mV every 15 or 30 s and the peak current was measured. Channels were activated by a series of depolarisation pulses to + 50 mV from a holding potential of − 120 mV. For KV1.1, 50-ms-long activating stimuli were used every 15 s. Due to the highly variable activation kinetics of KV1.2 [145] 200-ms-long pulses were applied every 15 s to maximise the open probability of the channel.
# hKV1.3 [2] = settings: read-out: Kd (positive control concentration equivalent to Kd); KV1.3; no reference given; cited from earlier work
# Protocol: as §3
# mKCa1.1 channel [3] = settings: read-out: Kd (positive control concentration equivalent to Kd); KCa1.1; no reference given; cited from earlier work
# Protocol: as §3
# hKV1.3 [4] = format: cell-based, human
# Protocol: as §2, with “Phytohemagglutinin A (PHA, Sigma-Aldrich Hungary, Budapest, Hungary) was added to the medium at 10 μg/mL to amplify the KV1.3 expression. Cells were washed gently twice with 2 mL of ECS for the patch-clamp experiments.” left out
# (§4) Conventional whole-cell patch-clamp electrophysiology was used to record ionic currents. […] Data were analysed using Prism 8 (GraphPad, CA, USA) and ClampFit 10.5 software (Molecular Devices Inc., Sunnyvale, CA). […] For hKCa3.1, hTRPA1 and hTRPV1, the reversal potential for K^+ was determined and only those currents were analysed for which the reversal potential fell into the range of the theoretical reversal potential ± 5 mV (− 86.5 ± 5 mV for KCa3.1, and 0 ± 5 mV for hTRPA1 and hTRPV1).
# hKV1.1 [5] = format: cell-based, human
# Protocol: as §1
# as §2, with “PBMCs were isolated using Histopaque1077 (Sigma-Aldrich Hungary, Budapest, Hungary) density gradient centrifugation. Cells obtained were resuspended in RPMI 1640 medium containing 10% foetal calf serum (Sigma-Aldrich Hungary, Budapest, Hungary), 100 μg/mL penicillin, 100 μg/mL streptomycin, and 2 mM L-glutamine, seeded in a 24-well culture plate at a density of 5–6 × 10^5 cells/mL, and grown in a 5% CO2 incubator at 37 °C for 3–5 days. Phytohemagglutinin A (PHA, Sigma-Aldrich Hungary, Budapest, Hungary) was added to the medium at 10 μg/mL to amplify the KV1.3 expression. Cells were washed gently twice with 2 mL of ECS for the patch-clamp experiments.” left out
# as §4
# mKCa1.1 channel [6] = format: cell-based
# Protocol: as §1
# as §2, with “PBMCs were isolated using Histopaque1077 (Sigma-Aldrich Hungary, Budapest, Hungary) density gradient centrifugation. Cells obtained were resuspended in RPMI 1640 medium containing 10% foetal calf serum (Sigma-Aldrich Hungary, Budapest, Hungary), 100 μg/mL penicillin, 100 μg/mL streptomycin, and 2 mM L-glutamine, seeded in a 24-well culture plate at a density of 5–6 × 10^5 cells/mL, and grown in a 5% CO2 incubator at 37 °C for 3–5 days. Phytohemagglutinin A (PHA, Sigma-Aldrich Hungary, Budapest, Hungary) was added to the medium at 10 μg/mL to amplify the KV1.3 expression. Cells were washed gently twice with 2 mL of ECS for the patch-clamp experiments.” left out
# as §4
# hKV10.1 = test: Whole-cell patch-clamp, hKV10.1 in transiently transfected CHO cells; format: cell-based, human; settings: 2 µM, KV10.1
# Protocol: as §1
# as §2, with “PBMCs were isolated using Histopaque1077 (Sigma-Aldrich Hungary, Budapest, Hungary) density gradient centrifugation. Cells obtained were resuspended in RPMI 1640 medium containing 10% foetal calf serum (Sigma-Aldrich Hungary, Budapest, Hungary), 100 μg/mL penicillin, 100 μg/mL streptomycin, and 2 mM L-glutamine, seeded in a 24-well culture plate at a density of 5–6 × 10^5 cells/mL, and grown in a 5% CO2 incubator at 37 °C for 3–5 days. Phytohemagglutinin A (PHA, Sigma-Aldrich Hungary, Budapest, Hungary) was added to the medium at 10 μg/mL to amplify the KV1.3 expression. Cells were washed gently twice with 2 mL of ECS for the patch-clamp experiments.” left out
# as §4
# T1 sequence (P16389 whole entry): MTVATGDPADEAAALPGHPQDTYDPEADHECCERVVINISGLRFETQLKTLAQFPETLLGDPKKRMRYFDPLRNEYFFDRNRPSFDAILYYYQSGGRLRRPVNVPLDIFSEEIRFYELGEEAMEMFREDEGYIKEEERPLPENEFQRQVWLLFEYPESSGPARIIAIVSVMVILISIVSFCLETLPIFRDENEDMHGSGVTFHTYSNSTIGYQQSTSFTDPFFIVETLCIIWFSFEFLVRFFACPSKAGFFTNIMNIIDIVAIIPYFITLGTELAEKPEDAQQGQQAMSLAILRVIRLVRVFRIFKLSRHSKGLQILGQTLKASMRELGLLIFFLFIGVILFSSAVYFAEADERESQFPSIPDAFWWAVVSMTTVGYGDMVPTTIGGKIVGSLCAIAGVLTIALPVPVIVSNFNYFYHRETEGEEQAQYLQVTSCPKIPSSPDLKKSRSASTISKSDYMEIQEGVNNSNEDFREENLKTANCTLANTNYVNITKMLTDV
molecule,measurement,setting,value
"charybdotoxin [ChTx, reference compound]","reduction in current amplitude, positive control",hKV1.2,~50%
"CC[N+](CC)(CC)CC [TEA+, tetraethylammonium, reference compound]",Kd,hKV1.1 [1],0.3 mM
same,Kd,hKV1.3 [2],10 mM
same,Kd,mKCa1.1 channel [3],10 mM
same,"reduction in current amplitude, positive control",hKV1.3 [4],~50%
same,"reduction in current amplitude, positive control",hKV1.1 [5],~50%
same,"reduction in current amplitude, positive control",mKCa1.1 channel [6],~50%
"COc1ccc(CCN2CCC(Nc3nc4ccccc4n3Cc3ccc(F)cc3)CC2)cc1 [Astemizole, astemizole, reference compound]","reduction in current amplitude, positive control",hKV10.1,~50%
